Data as given in US5023271A, “Pharmaceutical microemulsions” (priority 1985, dated 1991).

Columns and labels:
[1] = test system: lipoprotein components of human serum; assay: In vitro transfer of tocopherol from microemulsion to human serum lipoproteins (sodium chloride gradient); conditions: 100 μl microemulsion of Example 1 + 900 μl saline, 1 hr, 37°
Protocol: The diffusion of tocopherol in the mixtures was compared with the distribution of lipoproteins in the same mixtures and with the distribution of tocopherol from the untreated emulsion.
For a control, 100 μl of the microemulsion were incubated with 900 μl of saline solution under the same conditions. Each mixture was underlayered in a sodium chloride gradient and separated by ultracentrifugation according to Foreman, et al, J Lipid Research (1977) 18:759-767. The fractions of various densities were collected and each fraction was assayed for the content of tocopherol, tocopherol acetate, and cholesterol. The microemulsion alone mixed with saline gives a single peak for tocopherol at a density of approximately 1.018 g/ml. […] The treatment of microemulsion with serum effects the transfer of the tocopherol to serum in conjunction with the lipoprotein content thereof.

lipoprotein fractions = assay: Distribution of injected α-tocopherol and tocopherol acetate among serum lipoprotein fractions of rabbits
Protocol: The serum samples were also layered under a sodium chloride gradient and centrifuged. The distribution of the injected α-tocopherol and tocopherol acetate among the lipoprotein fractions was assessed.

[2] = cited from earlier work
in vivo = conditions: rabbit, iv, 15 mL/animal
Excerpt: (§1) The rabbits were then sacrificed and the tissues analyzed for their content of tocopherol and tocopherol acetate.

[3] = Serum and liver extract levels in rats after IV injection; conditions: 1 ml preparation of Example 1 IV
Protocol: The animals were sacrificed at 15 minute intervals for the first hour, after two hours, and then after 1, 3, 5, and 10 days. The levels of α-tocopherol and tocopherol acetate were assayed in the sera and liver extracts.

[4] = Long term daily injection to rabbits, serum samples at 1 week intervals; conditions: 1 ml preparation of Example 1 daily for 30 days
Protocol: New Zealand male rabbits were injected daily with 1 ml doses of the preparation of Example 1 for 30 days.

[5] = Short term serum and tissue levels after intravenous injection to rabbits
Excerpt: as §1

SMILES	density of the tocopherol peak, microemulsion mixed with saline (control) [1]	distribution among lipoprotein fractions after injection (lipoprotein fractions; rabbit, in vivo, iv)	adverse outcome of oral administration ([2]; in vivo, po)	adverse outcome of intravenous administration ([2]; intravenous, premature infants)	distribution among lipoprotein fractions after injection (lipoprotein fractions; preparation of Example 1 i.v., serum samples on sodium chloride gradient)	concentration at 5 min (in vivo) [µg/mL]	hydrolysis of tocopherol acetate in liver [3]	serum tocopherol acetate [4]	α-tocopherol acetate in circulation by the end of 4 hr ([5]; 15 ml preparation of Example 1 i.v., 4 hr)	α-tocopherol acetate in liver, spleen, and other tissues ([5]; after 4 hr)
Cc1c(C)c2c(c(C)c1O)CCC(C)(CCCC(C)CCCC(C)CCCC(C)C)O2 (racemic) [α-tocopherol]	approximately 1.018 g/ml	transferred, apparently to the LDL fraction, in exchange for cholesterol	gastrointestinal problems	implicated in several neonatal deaths	–	–	–	–	–	–
CC(=O)Oc1c(C)c(C)c2c(c1C)CCC(C)(CCC[C@H](C)CCC[C@H](C)CCCC(C)C)O2 (stereo partly drawn) [tocopherol acetate, α-tocopherol (dl) acetate]	–	–	–	–	remained mainly at the density of the microemulsion alone	280	completely hydrolyzed after approximately two hours	No tocopherol acetate was detectable	finally disappearing from the circulation by the end of the 4 hr period	no α-tocopherol acetate could be detected
